Laboratory results as given in US20170327559A1, “VIRAL INACTIVATION USING IMPROVED SOLVENT-DETERGENT METHOD” (Baxalta Incorporated, priority 2010, published 2017).
Where “and” joins values, the source holds several entries; their conditions need not be identical. Equal entries are not always repeated. Where two headings read alike, the source gives them in different places.

Tests used:
[1] = Temperature effects on solvent/detergent components before and after 0.2 μm filtration (HPLC); type: physicochemical
Method: In order to evaluate the influence of a lower temperature on the mixing time of solvent/detergent components, 50 mL solvent/detergent solutions were prepared by adding 0.3% (v/v) TNBP, 1.0% (v/v) polyoxyethylene octyl phenyl ether (TRITON® X-100) and 0.3% (v/v) polysorbate 80 sorbitan monooleate (TWEEN® 80) and stirring at 4±2° C. for 10, 20, or 30 minutes. As the solvent/detergent solution already contained 0.1% polysorbate 80 sorbitan monooleate (TWEEN® 80), the final concentration for this compound was of 0.4%. The concentration of TNBP and polyoxyethylene octyl phenyl ether (TRITON® X-100) were determined simultaneously by using C18 RP-HPLC with a refractive index detector (RID). The concentration of polysorbate 80 sorbitan monooleate (TWEEN® 80) was determined by C1 RP-HPLC using an evaporative light scattering detector (ELSD). For the HPLC analysis of TNBP and polyoxyethylene octyl phenyl ether (TRITON® X-100), an isocratic elution is employed using 68% methanol in water. In the assay of polysorbate 80 sorbitan monooleate (TWEEN® 80), a gradient elution from 60% methanol in water to 100% methanol is used.
To evaluate the impact of the temperature toward a potential retention of solvent/detergent conponents during the filtration step, 50 mL solvent/detergent solutions were prepared by adding 0.3% (v/v) TNBP, 1.0% (v/v) polyoxyethylene octyl phenyl ether (TRITON® X-100) and 0.3% (v/v) polysorbate 80 sorbitan monooleate (TWEEN® 80), stirring at 4±2° C. for 30 minutes and the concentration of each component was measured as described above. The solvent/detergent solutions were then processed under three different temperature conditions: 22.5° C. with a warm up period of about 8 hours; 22.5° C. with a warm up period of about 2 hours; and 4° C. without any warm-up or preheating step. At the end of the incubation period, samples were filtrated through a 0.2 μm filter and TNBP, polyoxyethylene octyl phenyl ether (TRITON® X-100) and polysorbate 80 sorbitan monooleate (TWEEN® 80) concentrations were measured by HPLC.

polyoxyethylene octyl phenyl ether [TRITON X-100]
S/D component concentration: 1.2% and 1.1%
S/D component concentration, Mean: 1.2 ± 0.06%
S/D component concentration after 0.2 μm filtration [1]: 1.00% and 0.90% and 1.10%
S/D component concentration after 0.2 μm filtration, Mean [1]: 1.03% and 0.97% and 1.00%
S/D component concentration before 0.2 μm filtration [1]: 0.80% and 1.00%
S/D component concentration before 0.2 μm filtration, Mean [1]: 1.00% and 0.93%

polysorbate 80 sorbitan monooleate [Tween 80]
S/D component concentration, Mean (mean of 10, 20, 30 min stirring at 4±2° C.): 0.42 ± 0.02%
S/D component concentration (stirring at 4±2° C. for 10 min): 0.42%
S/D component concentration (stirring at 4±2° C. for 20 min): 0.40%
S/D component concentration (stirring at 4±2° C. for 30 min): 0.44%
S/D component concentration after 0.2 μm filtration, Mean ([1]; 4° C./2 H, n = 3): 0.41%
S/D component concentration before 0.2 μm filtration, Mean ([1]; 4° C./2 H, n = 3): 0.40%
S/D component concentration after 0.2 μm filtration ([1]; 4° C./2 H, runs 1-3): 0.40% and 0.41%
S/D component concentration before 0.2 μm filtration ([1]; 4° C./2 H, runs 1-3): 0.38% and 0.40% and 0.42%
S/D component concentration after 0.2 μm filtration, Mean ([1]; 22.5° C./2 H, n = 3): 0.41%
S/D component concentration before 0.2 μm filtration, Mean ([1]; 22.5° C./2 H, n = 3): 0.41%
S/D component concentration after 0.2 μm filtration ([1]; 22.5° C./2 H, runs 1-3): 0.38% and 0.44% and 0.41%
S/D component concentration before 0.2 μm filtration ([1]; 22.5° C./2 H, runs 1-3): 0.41% and 0.42%
S/D component concentration after 0.2 μm filtration, Mean ([1]; 22.5° C./8 H, n = 3): 0.39%
S/D component concentration before 0.2 μm filtration, Mean ([1]; 22.5° C./8 H, n = 3): 0.38%
S/D component concentration after 0.2 μm filtration ([1]; 22.5° C./8 H, runs 1-3): 0.40% and 0.39% and 0.37%
S/D component concentration before 0.2 μm filtration ([1]; 22.5° C./8 H, runs 1-3): 0.33% and 0.39% and 0.42%
